From patent US10800791B2, “Triazole ACC inhibitors and uses thereof” (Gilead Apollo, LLC, priority 2015, dated 2020)
≈ marks a conversion by molar mass, not a printed value. Read-outs that look alike come from different tables or passages of the source.

Key:
Septoria tritici (St) = assay: Growth inhibition assay of fungal pathogens, St; format: cell-based; conditions: Zymoseptoria tritici, 48 h
Procedure, shortened: (§1)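 Pathogen growth in 17% V8 broth is measured by OD600 at 24 and 48 hours, after blank subtraction, in the presence of compound at 50, 10 and 2 ppm or 2, 0.4 and 0.08 ppm. Inhibition in percent comes from 48-hour readings against the DMSO control.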

C. parapsilosis = assay: Antifungal Activity Assay (broth microtiter MIC), C. parapsilosis; format: cell-based, Candida parapsilosis; conditions: Lodderomyces parapsilosis, ATCC22019, 48 h
Procedure, shortened: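 Endpoint: lowest concentration visibly inhibiting growth relative to control after 48 h. Inoculum of 2.5×10^3 CFU/mL final in RPMI 1640+MOPS, prepared from overnight 35° C agar cultures; test compounds diluted in water to 128 μg/mL before plating.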

[1] = test system: Collectotrichum graminicola (Cg); assay: Growth inhibition assay of fungal pathogens, Cg; format: cell-based; conditions: 48 h
Procedure, shortened: as §1

[2] = test system: Fusarium virguliforme (Fv); assay: Growth inhibition assay of fungal pathogens, Fv; format: cell-based; conditions: 48 h
Procedure, shortened: as §1

Diplodia maydis (Dm) = assay: Growth inhibition assay of fungal pathogens, Dm; format: cell-based; conditions: Stenocarpella maydis, 48 h
Procedure, shortened: as §1

human (hACC2) = human (hACC2) (Homo sapiens, UniProt O00763); assay: In vitro ACC inhibition assay (ADP-Glo), hACC2; format: biochemical; conditions: 5 nM ACC2, 20 μM ATP, 20 μM acetyl-CoA
Description: The detailed procedure is as follows. […] 10 μL ADP glo reagent was added. […] 20 μL kinase detection reagent was added.

[3] = test system: Phytophthora capsici (Pc); assay: Growth inhibition assay of fungal pathogens, Pc; format: cell-based; conditions: 48 h
Procedure, shortened: as §1

fungal (fACC2) = fungal (fACC2) (UniProt Q00955); conditions: read-out: fACC2 (in vitro ACC2 Inhibition Assay, IC50), ADP-Glo, 5 nM ACC2, 20 μM ATP, 20 μM acetyl-CoA
Rhizoctonia solani (Rs) = assay: Growth inhibition assay of fungal pathogens, Rs; format: cell-based; conditions: 48 h
[4] = test system: Fusarium moniliforme (Fm); assay: Growth inhibition assay of fungal pathogens, Fm; format: cell-based; conditions: for IC90: Fusarium verticillioides, 48 h, read-out: Concentration at 90% Inhibition Fm
Procedure, shortened: as §1

[5] = Septoria tritici, growth inhibition at 48 hours vs 2% DMSO control, read-out: Concentration at 90% Inhibition St
[6] = Septoria tritici, growth inhibition vs 2% DMSO control at 48 hours, read-out: Concentration at 90% Inhibition St
[7] = Table 3a, ATCC 22019, 3 replicates, MIC recorded at 48 h, read-out: MIC, C. parapsilosis ATCC 22019
[8] = Table 3b (additional results), ATCC 22019, 3 replicates, MIC recorded at 48 h, read-out: MIC, C. parapsilosis ATCC 22019
[9] = Collectotrichum graminicola, growth inhibition at 48 hours vs 2% DMSO control, read-out: Concentration at 90% Inhibition Cg
[10] = Collectotrichum graminicola, growth inhibition vs 2% DMSO control at 48 hours, read-out: Concentration at 90% Inhibition Cg
[11] = growth inhibition at 48 hours vs 2% DMSO control, read-out: Concentration at 90% Inhibition Fv
[12] = growth inhibition vs 2% DMSO control at 48 hours, read-out: Concentration at 90% Inhibition Fv
[13] = Diplodia maydis, growth inhibition at 48 hours vs 2% DMSO control, read-out: Concentration at 90% Inhibition Dm
[14] = Diplodia maydis, growth inhibition vs 2% DMSO control at 48 hours, read-out: Concentration at 90% Inhibition Dm
[15] = growth inhibition at 48 hours vs 2% DMSO control, read-out: Concentration at 90% Inhibition Pc
[16] = growth inhibition vs 2% DMSO control at 48 hours, read-out: Concentration at 90% Inhibition Pc
[17] = mycelial plugs, growth inhibition at 48 hours vs 2% DMSO control, read-out: Concentration at 90% Inhibition Rs
[18] = mycelial plugs, growth inhibition vs 2% DMSO control at 48 hours, read-out: Concentration at 90% Inhibition Rs
[19] = Fusarium moniliforme, growth inhibition at 48 hours vs 2% DMSO control
[20] = Fusarium moniliforme, growth inhibition vs 2% DMSO control at 48 hours

fungal (fACC2), sequence (Q00955 whole entry): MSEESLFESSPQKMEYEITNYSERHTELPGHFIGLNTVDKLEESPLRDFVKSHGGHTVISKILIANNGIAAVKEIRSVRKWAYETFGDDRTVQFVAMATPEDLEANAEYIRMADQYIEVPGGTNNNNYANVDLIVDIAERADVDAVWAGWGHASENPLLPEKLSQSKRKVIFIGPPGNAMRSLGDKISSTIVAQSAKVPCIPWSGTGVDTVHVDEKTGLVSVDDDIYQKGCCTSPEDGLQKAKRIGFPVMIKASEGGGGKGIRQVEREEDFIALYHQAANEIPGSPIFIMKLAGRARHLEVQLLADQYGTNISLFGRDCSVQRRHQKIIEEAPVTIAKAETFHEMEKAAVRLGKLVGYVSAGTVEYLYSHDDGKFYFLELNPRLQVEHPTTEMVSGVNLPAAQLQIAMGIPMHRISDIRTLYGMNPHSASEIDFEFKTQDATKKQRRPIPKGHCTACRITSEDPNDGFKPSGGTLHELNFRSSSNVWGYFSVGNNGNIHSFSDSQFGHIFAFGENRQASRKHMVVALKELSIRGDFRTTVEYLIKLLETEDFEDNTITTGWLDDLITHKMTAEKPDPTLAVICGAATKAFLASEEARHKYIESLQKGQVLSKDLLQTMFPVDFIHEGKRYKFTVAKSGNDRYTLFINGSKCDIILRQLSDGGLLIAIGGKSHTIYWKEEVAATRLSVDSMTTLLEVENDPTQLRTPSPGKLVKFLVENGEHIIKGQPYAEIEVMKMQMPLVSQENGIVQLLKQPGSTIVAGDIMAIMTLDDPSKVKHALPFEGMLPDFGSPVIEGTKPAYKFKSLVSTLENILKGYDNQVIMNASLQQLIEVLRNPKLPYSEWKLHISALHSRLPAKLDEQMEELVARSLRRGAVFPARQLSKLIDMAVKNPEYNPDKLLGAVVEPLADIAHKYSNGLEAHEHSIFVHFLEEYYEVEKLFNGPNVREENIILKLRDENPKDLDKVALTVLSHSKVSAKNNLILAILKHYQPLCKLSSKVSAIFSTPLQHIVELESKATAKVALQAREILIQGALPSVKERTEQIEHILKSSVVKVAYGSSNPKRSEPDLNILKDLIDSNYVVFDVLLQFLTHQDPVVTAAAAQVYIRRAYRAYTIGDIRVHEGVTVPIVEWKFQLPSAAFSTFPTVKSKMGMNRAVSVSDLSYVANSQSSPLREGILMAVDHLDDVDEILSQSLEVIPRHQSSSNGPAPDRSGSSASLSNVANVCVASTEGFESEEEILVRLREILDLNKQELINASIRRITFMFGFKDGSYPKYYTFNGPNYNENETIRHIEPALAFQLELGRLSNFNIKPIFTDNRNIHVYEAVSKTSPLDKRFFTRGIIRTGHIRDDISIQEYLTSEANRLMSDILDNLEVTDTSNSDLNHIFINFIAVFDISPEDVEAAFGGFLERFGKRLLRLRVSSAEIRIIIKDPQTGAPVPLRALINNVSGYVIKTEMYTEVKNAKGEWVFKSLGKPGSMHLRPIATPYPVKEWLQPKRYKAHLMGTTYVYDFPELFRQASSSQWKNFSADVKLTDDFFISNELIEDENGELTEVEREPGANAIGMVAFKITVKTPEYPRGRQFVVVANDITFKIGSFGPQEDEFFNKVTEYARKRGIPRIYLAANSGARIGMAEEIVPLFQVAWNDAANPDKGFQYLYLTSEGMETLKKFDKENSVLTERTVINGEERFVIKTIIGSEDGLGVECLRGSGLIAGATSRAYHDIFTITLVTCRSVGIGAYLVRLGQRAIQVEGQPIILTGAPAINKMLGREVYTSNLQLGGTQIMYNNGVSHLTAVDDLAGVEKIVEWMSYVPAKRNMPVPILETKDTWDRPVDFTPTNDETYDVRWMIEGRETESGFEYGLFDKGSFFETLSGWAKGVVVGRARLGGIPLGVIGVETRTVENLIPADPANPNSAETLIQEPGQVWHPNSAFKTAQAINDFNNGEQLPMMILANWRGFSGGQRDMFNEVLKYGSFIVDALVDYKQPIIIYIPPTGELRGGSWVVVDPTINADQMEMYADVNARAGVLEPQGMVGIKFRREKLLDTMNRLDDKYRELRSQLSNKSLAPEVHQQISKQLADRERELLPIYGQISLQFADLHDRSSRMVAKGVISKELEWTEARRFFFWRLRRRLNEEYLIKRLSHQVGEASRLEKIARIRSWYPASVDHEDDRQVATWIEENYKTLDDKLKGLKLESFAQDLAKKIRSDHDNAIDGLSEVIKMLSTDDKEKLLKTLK
human (hACC2), sequence (O00763 whole entry): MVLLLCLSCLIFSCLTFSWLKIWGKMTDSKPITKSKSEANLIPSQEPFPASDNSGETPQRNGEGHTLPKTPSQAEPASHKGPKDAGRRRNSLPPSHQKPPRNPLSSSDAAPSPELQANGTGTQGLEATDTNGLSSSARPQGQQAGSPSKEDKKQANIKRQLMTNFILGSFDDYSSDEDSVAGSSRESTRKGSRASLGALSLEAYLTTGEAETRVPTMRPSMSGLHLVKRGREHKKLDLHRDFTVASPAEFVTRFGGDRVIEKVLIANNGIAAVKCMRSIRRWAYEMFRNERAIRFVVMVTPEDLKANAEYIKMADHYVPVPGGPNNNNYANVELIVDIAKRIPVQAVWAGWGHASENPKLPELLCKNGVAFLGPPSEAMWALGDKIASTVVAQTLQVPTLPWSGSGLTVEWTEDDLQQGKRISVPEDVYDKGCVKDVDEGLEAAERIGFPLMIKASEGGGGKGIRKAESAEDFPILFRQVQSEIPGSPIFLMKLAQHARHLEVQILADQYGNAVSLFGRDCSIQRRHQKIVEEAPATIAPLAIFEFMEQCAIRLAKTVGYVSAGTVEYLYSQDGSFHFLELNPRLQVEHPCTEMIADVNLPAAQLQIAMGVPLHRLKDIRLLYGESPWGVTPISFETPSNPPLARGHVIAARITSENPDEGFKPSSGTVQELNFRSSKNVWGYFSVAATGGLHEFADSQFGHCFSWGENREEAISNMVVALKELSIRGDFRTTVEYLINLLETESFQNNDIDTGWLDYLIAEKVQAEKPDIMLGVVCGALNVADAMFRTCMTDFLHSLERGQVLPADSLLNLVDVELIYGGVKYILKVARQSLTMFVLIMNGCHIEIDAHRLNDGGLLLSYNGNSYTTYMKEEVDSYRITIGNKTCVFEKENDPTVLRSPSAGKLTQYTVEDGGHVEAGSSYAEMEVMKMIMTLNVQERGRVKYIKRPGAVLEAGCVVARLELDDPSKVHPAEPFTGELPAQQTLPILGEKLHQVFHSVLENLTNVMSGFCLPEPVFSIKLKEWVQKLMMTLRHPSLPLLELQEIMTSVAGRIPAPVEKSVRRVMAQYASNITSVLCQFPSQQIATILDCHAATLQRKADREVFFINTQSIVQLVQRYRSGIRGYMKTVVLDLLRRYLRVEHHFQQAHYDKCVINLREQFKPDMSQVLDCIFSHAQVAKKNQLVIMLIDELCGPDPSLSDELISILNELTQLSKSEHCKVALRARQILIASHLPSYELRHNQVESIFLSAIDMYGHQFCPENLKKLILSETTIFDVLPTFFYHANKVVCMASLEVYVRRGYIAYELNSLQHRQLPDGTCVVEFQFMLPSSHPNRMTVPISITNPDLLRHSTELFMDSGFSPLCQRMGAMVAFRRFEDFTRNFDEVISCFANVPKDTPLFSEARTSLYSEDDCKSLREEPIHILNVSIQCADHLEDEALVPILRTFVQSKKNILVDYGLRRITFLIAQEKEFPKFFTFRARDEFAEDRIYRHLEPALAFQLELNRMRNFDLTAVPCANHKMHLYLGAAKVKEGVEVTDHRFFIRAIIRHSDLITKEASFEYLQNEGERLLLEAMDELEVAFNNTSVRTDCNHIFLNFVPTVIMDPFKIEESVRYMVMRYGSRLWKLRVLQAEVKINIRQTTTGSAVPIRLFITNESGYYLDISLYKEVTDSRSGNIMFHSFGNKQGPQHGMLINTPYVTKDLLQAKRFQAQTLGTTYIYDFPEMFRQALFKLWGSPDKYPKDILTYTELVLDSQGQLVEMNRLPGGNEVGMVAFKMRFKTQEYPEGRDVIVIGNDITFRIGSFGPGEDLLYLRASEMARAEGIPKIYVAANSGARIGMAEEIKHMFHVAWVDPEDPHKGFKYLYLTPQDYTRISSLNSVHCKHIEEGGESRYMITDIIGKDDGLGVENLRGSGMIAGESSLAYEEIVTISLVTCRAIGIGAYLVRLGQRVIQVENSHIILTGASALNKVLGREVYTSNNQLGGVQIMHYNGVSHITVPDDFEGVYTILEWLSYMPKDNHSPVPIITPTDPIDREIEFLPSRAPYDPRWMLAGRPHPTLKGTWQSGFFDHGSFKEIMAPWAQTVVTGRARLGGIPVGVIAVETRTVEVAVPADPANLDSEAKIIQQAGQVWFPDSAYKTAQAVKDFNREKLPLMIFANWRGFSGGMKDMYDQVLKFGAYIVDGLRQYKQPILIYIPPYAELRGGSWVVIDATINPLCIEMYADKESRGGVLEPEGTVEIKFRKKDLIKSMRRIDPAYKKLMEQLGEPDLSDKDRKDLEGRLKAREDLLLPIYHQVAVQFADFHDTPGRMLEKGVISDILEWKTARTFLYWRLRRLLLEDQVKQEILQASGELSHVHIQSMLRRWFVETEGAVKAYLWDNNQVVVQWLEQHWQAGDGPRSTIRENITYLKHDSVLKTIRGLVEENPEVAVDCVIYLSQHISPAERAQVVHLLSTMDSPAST

SMILES | IC90 (Septoria tritici (St); [5]) [µg/mL] | IC90 (Septoria tritici (St); [6]) [µg/mL] | MIC (C. parapsilosis; [7]) [µg/mL] | MIC (C. parapsilosis; [8]) [µg/mL] | IC90 [1, 9] [µg/mL] | IC90 [1, 10] [µg/mL] | IC90 [2, 11] [µg/mL] | IC90 [2, 12] [µg/mL] | IC90 (Diplodia maydis (Dm); [13]) [µg/mL] | IC90 (Diplodia maydis (Dm); [14]) [µg/mL] | IC50 (human (hACC2); Table 2a) [nM] | IC50 (human (hACC2); Table 2b, additional results) [nM] | IC90 [3, 15] [µg/mL] | IC90 [3, 16] [µg/mL] | IC50 (fungal (fACC2); Table 2a) [nM] | IC50 (fungal (fACC2); Table 2b, additional results) [nM] | IC90 (Rhizoctonia solani (Rs); [17]) [µg/mL] | IC90 (Rhizoctonia solani (Rs); [18]) [µg/mL] | IC90 [4, 19] [µg/mL] | IC90 [4, 20] [µg/mL] | other results
C=CCN(C)C(=O)C(C)(C)n1c(=O)c2c(C)c(-n3nccn3)sc2n(C[C@H](OC2CCOCC2)c2cc(F)ccc2OC)c1=O [Compound I-71, (R)—N-allyl-2-(1-(2-(5-fluoro-2-methoxyphenyl)-2-((tetrahydro-2H-pyran-4-yl)oxy)ethyl)-5-methyl-2,4-dioxo-6-(2H-1,2,3-triazol-2-yl)-1,4-dihydrothieno[2,3-d]pyrimidin-3(2H)-yl)-N,2-dimethylpropanamide] | > 50 | > 50 | 0.25 to 1 (≈ 0.39 to 1.56 µM) | 1.01 to 2 (≈ 1.58 to 3.12 µM) | 0.08 (≈ 0.125 µM) | 0.08 (≈ 0.125 µM) | 2 (≈ 3.12 µM) | 2 (≈ 3.12 µM) | 0.4 (≈ 0.624 µM) | 0.4 (≈ 0.624 µM) | 1 to 5 | 1 to 5 | > 50 | > 50 | 1 to 5 | 1 to 5 | 0.08 (≈ 0.125 µM) | 0.08 (≈ 0.125 µM) | 0.08 (≈ 0.125 µM) | 0.08 (≈ 0.125 µM) | –
C=CCO[C@@H](Cn1c(=O)n(C(C)(C)C(=O)NC(C)C)c(=O)c2c(C)c(-n3nccn3)sc21)c1cc(F)ccc1OC [Compound I-72, (R)-2-(1-(2-(allyloxy)-2-(5-fluoro-2-methoxyphenyl)ethyl)-5-methyl-2,4-dioxo-6-(2H-1,2,3-triazol-2-yl)-1,4-dihydrothieno[2,3-d]pyrimidin-3(2H)-yl)-N-isopropyl-2-methylpropanamide] | – | – | – | – | – | – | – | – | – | – | 1 to 5 | 1 to 5 | – | – | 1 to 5 | 1 to 5 | – | – | – | – | IC90 (Septoria tritici (St); read-out: Concentration at 90% Inhibition St, Septoria tritici, growth inhibition at 48 hours vs 2% DMSO control): > 50 µg/mL; IC90 (Septoria tritici (St); read-out: Concentration at 90% Inhibition St, Septoria tritici, growth inhibition vs 2% DMSO control at 48 hours): > 50 µg/mL; MIC (C. parapsilosis; read-out: MIC, C. parapsilosis ATCC 22019, Table 3a, 3 replicates, MIC recorded at 48 h): 1.1 to 2 µg/mL (≈ 1.88 to 3.42 µM); MIC (C. parapsilosis; read-out: MIC, C. parapsilosis ATCC 22019, Table 3b (additional results), 3 replicates, MIC recorded at 48 h): 1.01 to 2 µg/mL (≈ 1.73 to 3.42 µM); IC90 ([1]; read-out: Concentration at 90% Inhibition Cg, Collectotrichum graminicola, growth inhibition at 48 hours vs 2% DMSO control): 2 µg/mL (≈ 3.42 µM); IC90 ([1]; read-out: Concentration at 90% Inhibition Cg, Collectotrichum graminicola, growth inhibition vs 2% DMSO control at 48 hours): 2 µg/mL (≈ 3.42 µM); IC90 ([2]; read-out: Concentration at 90% Inhibition Fv, Fusarium virguliforme, growth inhibition at 48 hours vs 2% DMSO control): 0.4 µg/mL (≈ 0.684 µM); IC90 ([2]; read-out: Concentration at 90% Inhibition Fv, Fusarium virguliforme, growth inhibition vs 2% DMSO control at 48 hours): 0.4 µg/mL (≈ 0.684 µM); IC90 (Diplodia maydis (Dm); read-out: Concentration at 90% Inhibition Dm, Diplodia maydis, growth inhibition at 48 hours vs 2% DMSO control): 2 µg/mL (≈ 3.42 µM); IC90 (Diplodia maydis (Dm); read-out: Concentration at 90% Inhibition Dm, Diplodia maydis, growth inhibition vs 2% DMSO control at 48 hours): 2 µg/mL (≈ 3.42 µM); IC90 ([3]; read-out: Concentration at 90% Inhibition Pc, Phytophthora capsici, growth inhibition at 48 hours vs 2% DMSO control): > 50 µg/mL; IC90 ([3]; read-out: Concentration at 90% Inhibition Pc, Phytophthora capsici, growth inhibition vs 2% DMSO control at 48 hours): > 50 µg/mL; IC90 (Rhizoctonia solani (Rs); read-out: Concentration at 90% Inhibition Rs, Rhizoctonia solani, mycelial plugs, growth inhibition at 48 hours vs 2% DMSO control): 0.4 µg/mL (≈ 0.684 µM); IC90 (Rhizoctonia solani (Rs); read-out: Concentration at 90% Inhibition Rs, Rhizoctonia solani, mycelial plugs, growth inhibition vs 2% DMSO control at 48 hours): 0.4 µg/mL (≈ 0.684 µM); Concentration at 90% Inhibition Fm [4, 19]: AA (compound concentration of 0.08 ppm at 90% inhibition of fungal pathogens); IC90 [4]: 0.08 µg/mL (≈ 0.137 µM)
COc1ccc(F)cc1[C@H](Cn1c(=O)n(C(C)(C)C(=O)NC2CC2)c(=O)c2c(C)c(-n3nccn3)sc21)OC(C)C [Compound I-73, (R)—N-cyclopropyl-2-(1-(2-(5-fluoro-2-methoxyphenyl)-2-isopropoxyethyl)-5-methyl-2,4-dioxo-6-(2H-1,2,3-triazol-2-yl)-1,4-dihydrothieno[2,3-d]pyrimidin-3(2H)-yl)-2-methylpropanamide] | > 50 | > 50 | 0.25 to 1 (≈ 0.428 to 1.71 µM) | 1.01 to 2 (≈ 1.73 to 3.42 µM) | 2 (≈ 3.42 µM) | 2 (≈ 3.42 µM) | 0.4 (≈ 0.684 µM) | 0.4 (≈ 0.684 µM) | 2 (≈ 3.42 µM) | 2 (≈ 3.42 µM) | 5 to 10 | 5 to 10 | > 50 | > 50 | 1 to 5 | 1 to 5 | 0.4 (≈ 0.684 µM) | 0.4 (≈ 0.684 µM) | 0.08 (≈ 0.137 µM) | 0.08 (≈ 0.137 µM) | –
